The text below walks through data of patent publication US5250572A (priority 1992, dated 1993).

Molecules are shown by their SMILES. pIC50: −log10 of the molar value.

Data set [1] deals with serotonin uptake. The conditions noted are these: words, cited from earlier work.
Data set [2] can be described thus: Toxicity and therapeutic index (statements in words).
Data set [3] addresses T1, 5HT1B (Rattus norvegicus, UniProt P28564).
T1 construct: brain tissues from male Sprague-Dawley rats was homogenized; from tissue; host or cells: brain of male Sprague-Dawley rats, crude synaptosomal membranes
The data set can be described thus: Inhibition of 3H-serotonin binding to 5HT1B receptor. On the set-up: species or system male Sprague-Dawley). The conditions noted are these: rat brain membranes, 25° C., 30 min, pH 7.4. As to the method: (§1) This general procedure is set forth by Wong et al., Life Sciences, 46, 231 (1990).
(§2) Bovine choroid plexus and brain tissues from male Sprague-Dawley rats was homogenized in 9 volumes of 0.32 M sucrose. After centrifugation at 1000×g for 10 minutes and then at 17,000×g for 20 minutes, a crude synaptosomal fraction was sedimented. The pellet was suspended in 100 volumes of 50 mM Tris-HCI, pH 7.4, incubated at 37° C. for 10 minutes, and centrifuged at 50,000×g for 10 minutes. The process was repeated, and the final pellet of membrane was suspended in ice-chilled 50 mM Tris-HCI buffer, pH 7.4.
(§3) Binding of ^3 H-mesulergine to the 5HT1C receptor and other serotonergic ^3 H-ligands to subtypes of 5HT receptors (^3 H-8-hydroxy-2-(di-n-propylamino)tetralin to 5HT1A; ^3 H-serotonin to 5HT1B and 5HT1D; ^3 H-ketanserin to 5HT2; and ^3 H-1-methyl-N-(8-methyl-8-azabicyclo[3.2.1]oct-3-yl)-1H-indazaole-3-carboxamide to 5HT3 receptors) was performed according to the method described in the above reference. Briefly, membranes isolated from bovine choroid plexus (for 5HT1C) or rat brain were incubated at 25° C. for 30 minutes in 2 ml of 50 mM Tris-HCl, pH 7.4; 10 mM pargyline, 0.6 mM ascorbic acid; 5 mM CaCl2; and 2 nM ^3 H-mesulergine or other tritiated ligand. […] Radioactivity was measured with a liquid scintillation spectrometer. […]

The target in data set [4] is 5HT1D. The data set can be described thus: Inhibition of 3H-serotonin binding to 5HT1D receptor. On the set-up: species or system male Sprague-Dawley). The conditions noted are these: read-out: Inhibition of Radioligand Binding to 5HT Receptor, 1D (IC50), rat brain membranes, 25° C., 30 min, pH 7.4. As to the method: as §1, §2, §3
Data set [5] relates to metabolism of concurrently administered drugs such as barbiturates or tricyclic antidepressants.
The target in data set [6] is T2, 5HT3 receptors (Rattus norvegicus, UniProt P35563).
T2 construct: brain tissues from male Sprague-Dawley rats was homogenized; from tissue; host or cells: brain of male Sprague-Dawley rats, crude synaptosomal membranes
T2 sequence (P35563 24-483): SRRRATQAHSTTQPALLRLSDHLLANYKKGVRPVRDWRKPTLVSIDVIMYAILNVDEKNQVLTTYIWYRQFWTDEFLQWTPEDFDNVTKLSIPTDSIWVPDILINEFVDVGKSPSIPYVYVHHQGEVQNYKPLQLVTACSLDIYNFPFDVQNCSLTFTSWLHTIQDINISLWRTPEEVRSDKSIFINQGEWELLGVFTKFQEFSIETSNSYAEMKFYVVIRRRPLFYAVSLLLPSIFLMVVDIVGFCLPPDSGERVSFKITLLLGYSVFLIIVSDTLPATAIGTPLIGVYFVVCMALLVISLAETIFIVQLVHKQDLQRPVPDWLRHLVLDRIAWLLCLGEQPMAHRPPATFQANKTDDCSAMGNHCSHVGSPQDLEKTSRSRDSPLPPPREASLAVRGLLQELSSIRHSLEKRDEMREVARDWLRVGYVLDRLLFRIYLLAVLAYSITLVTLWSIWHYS
The data set can be described thus: Inhibition of 3H-1-methyl-N-(8-methyl-8-azabicyclo[3.2.1]oct-3-yl)-1H-indazaole-3-carboxamide binding to 5HT3 receptors. The conditions noted are these: rat brain membranes, 25° C., 30 min, pH 7.4. On the set-up: species or system male Sprague-Dawley). As for the experimental part: as §1, §2, §3

In data set [7] the target is T3, 5HT1C receptor (Bos taurus, UniProt A0AAA9SBU1).
T3 sequence (A0AAA9SBU1 33-457): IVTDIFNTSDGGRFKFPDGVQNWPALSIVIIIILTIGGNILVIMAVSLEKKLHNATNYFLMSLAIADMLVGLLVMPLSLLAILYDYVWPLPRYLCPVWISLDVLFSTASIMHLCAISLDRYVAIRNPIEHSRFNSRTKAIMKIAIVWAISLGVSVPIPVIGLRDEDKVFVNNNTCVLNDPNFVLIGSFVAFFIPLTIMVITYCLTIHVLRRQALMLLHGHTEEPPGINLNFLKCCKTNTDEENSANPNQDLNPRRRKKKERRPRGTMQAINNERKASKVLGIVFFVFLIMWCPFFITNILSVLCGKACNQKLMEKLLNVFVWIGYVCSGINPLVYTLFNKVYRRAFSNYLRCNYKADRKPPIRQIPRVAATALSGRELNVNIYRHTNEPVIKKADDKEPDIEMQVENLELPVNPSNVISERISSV
The data set is described as follows: Inhibition of 3H-mesulergine binding to 5HT1C receptor. As to conditions: read-out: Inhibition of Radioligand Binding to 5HT Receptor, 1C (IC50); bovine choroid plexus membranes, 2 nM 3H-mesulergine, 25° C., 30 min, pH 7.4; mean of three experiments. As for the experimental part:
as §1, §2, §3

Data set [8] concerns the target T4, 5HT1A (Rattus norvegicus, UniProt P19327).
T4 construct: brain tissues from male Sprague-Dawley rats was homogenized; from tissue; host or cells: brain of male Sprague-Dawley rats, crude synaptosomal membranes
T4 sequence (P19327 1-422): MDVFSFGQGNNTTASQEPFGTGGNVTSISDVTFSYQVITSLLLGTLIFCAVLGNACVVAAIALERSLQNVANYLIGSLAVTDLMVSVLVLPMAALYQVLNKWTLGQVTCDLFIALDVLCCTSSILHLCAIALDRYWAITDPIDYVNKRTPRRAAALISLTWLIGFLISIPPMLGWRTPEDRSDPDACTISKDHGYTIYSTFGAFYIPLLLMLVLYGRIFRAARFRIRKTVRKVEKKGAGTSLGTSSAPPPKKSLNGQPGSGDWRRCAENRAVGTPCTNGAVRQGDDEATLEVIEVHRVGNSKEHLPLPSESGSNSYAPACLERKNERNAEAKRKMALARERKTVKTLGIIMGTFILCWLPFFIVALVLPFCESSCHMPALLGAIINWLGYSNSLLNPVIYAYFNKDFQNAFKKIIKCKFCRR
The data set can be described thus: Inhibition of 3H-8-hydroxy-2-(di-n-propylamino)tetralin binding to 5HT1A receptor. As to conditions: rat brain membranes, 25° C., 30 min, pH 7.4. On the set-up: species or system male Sprague-Dawley). As for the experimental part:
as §1, §2, §3

T1 sequence (P28564 whole entry): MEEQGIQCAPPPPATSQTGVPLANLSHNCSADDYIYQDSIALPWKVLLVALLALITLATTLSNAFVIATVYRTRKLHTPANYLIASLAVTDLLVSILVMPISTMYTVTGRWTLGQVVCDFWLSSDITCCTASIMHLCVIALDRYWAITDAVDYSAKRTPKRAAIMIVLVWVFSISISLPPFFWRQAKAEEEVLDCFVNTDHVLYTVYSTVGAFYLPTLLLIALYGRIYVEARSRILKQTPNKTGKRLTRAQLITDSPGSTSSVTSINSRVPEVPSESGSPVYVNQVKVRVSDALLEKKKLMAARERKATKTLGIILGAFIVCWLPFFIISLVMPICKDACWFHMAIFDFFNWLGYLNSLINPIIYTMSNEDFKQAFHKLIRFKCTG

Regarding `NCC[C@H](Oc1ccc(C(F)(F)F)cc1)c1ccccc1` [(S)-norfluoxetine], the “activity as serotonin uptake inhibitor” value in data set [1] (relative to (R)-antipode, from copending application Ser. No. 07/486,478) is given as “substantially more active than its (R)-antipode”.
Turning to `NCC[C@@H](Oc1ccc(C(F)(F)F)cc1)c1ccccc1` [(R)-Norfluoxetine], the toxicity result in data set [2] was “relatively non-toxic”. Moreover, the pIC50 – broadly, the negative decadic logarithm of the IC50, by convention in mol/L – in data set [3] was 4.62; in data set [4] it was 4.00; in data set [6], 4.92; in data set [7], 6.33; in data set [8] it was 4.66. Besides, the “effect on metabolism of concurrently administered drugs” value in data set [5] is listed as “little effect on metabolism of concurrently administered drugs”.
Consider `NCCC(Oc1ccc(C(F)(F)F)cc1)c1ccccc1` (racemic) [Norfluoxetine, 3-(4-trifluoromethylphenoxy)-3-phenylpropylamine], for which the “serotonin / monoamine uptake blockade” value in data set [1] (background, known from earlier patents) is on record as “block monoamine uptake, especially serotonin”.
